Reference: patent publication US20230374112A1, “Bioactive Collagen Peptides, Method Of Production Thereof, And Use Thereof” (CORPORATION GENACOL CANADA INC., priority 2020, published 2023)
Where two headings read alike, the source gives them in different places. Non-standard residues stand in square brackets, D forms with d. Residues, ends and D or L forms follow the SMILES beside them. No end group written: not given here. Hyp = O=C(O)[C@@H]1C[C@@H](O)CN1

How the values were obtained:
[1] = test system: HIEC-6/HepG2 cell coculture system
Procedure: Based on the daily dose used in the clinical trials and the current recommendations of the bottle, 1200 mg of Genacol CH product (bovine) or a generic CH product (bovine) was added (3% w/v) to sterile ddH2O (Bernado & Azarcon, 2012; Bruyère et al., 2012; Feliciano et al., 2017). Three independent digestions for each CH product were completed. The vessels were placed in a 37° C. water bath, with continuous agitation. A pepsin solution was added, the pH adjusted to 2 and incubated for 30 min. Then, a bile solution was added, the pH adjusted to 7.5 and incubated for 90 min at 37° C. Pepsin (4% w/w protein basis) and pancreatin (4% w/w protein basis) were added (Aleman et al., 2013). The pancreatin digestion was stopped with the addition of NaOH, until the pH was 10 and the resulting digesta was cooled and frozen at −80° C. Digesta subsamples were taken and filtered using 0.2 μm syringe filters.
The final digesta was filtered using a molecular weight cut off (MWCO) of 10 kDa in a stirred Amicon™ ultrafiltration membrane reactor at 4° C. under a nitrogen gas pressure of 40 psi (Iskandar et al., 2015). The filtrates were freeze-dried at −50 to −60° C. and 0.85 mBar (0.64 mm Hg) (Gamma 1-16 LSC, Christ, Osterode am Harz, Germany) and stored at −80° C. until used in cell culture.
Two bovine-sourced CH products were used: Original Formula® (Genacol, Blainville, QC) (CH-GL) and a generic brand (such as Selection™, Uniprix, Quebec, Canada) (CH-GR). HIEC-6 (ATCC® CRL-3266™) and Hep G2 (ATCC® HB-8065™) cells were purchased from ATCC to represent the gastrointestinal and liver wall lining, respectively. HIEC-6 cells were cultured using OptiMEM™ 1 Reduced Serum Medium (Gibco Catalog No. 31985) with 20 mM HEPES, 10 mM GlutaMAX™ (Gibco Catalog No. 35050), 10 ng/mL Epidermal Growth Factor, 4% fetal bovine serum (FBS). HepG2 cells were grown using ATCC-formulated Eagle's Minimum Essential Medium (Catalog No. 30-2003), with 10% FBS. Cells were maintained at 37° C. with 90% relative humidity (RH) and 5% C02 in culture medium as described herein.
HIEC-6/HepG2 cell coculture system was used to determine the bioavailability of key bioactive peptides from CHs after digestion. HIEC-6 and HepG2 cells were cultured separately but then later combined in a transwell system.
HIEC-6 cells were seeded onto 24-well polyester (PET) ThinCert™ inserts from Greiner Bio-One (Kremsmünster, Austria) at a density of 1×10^5 cells/well. The medium was changed every 2 days and the cells were grown for a total of 8-9 days. Transepithelial electrical resistance (TEER) was measured using a volt-ohmmeter to assess integrity of monolayer. […] Three individual plate experiments were completed for each CH product.
At time 0, the apical medium was replaced with medium containing 2 mg/ml of freeze-dried CH dissolved in medium using either the Genacol (GL) peptide or the Generic (GR) CH products. HepG2 cells were added to the basolateral side of the transwell (1 million cells/mL). The plates were incubated for 2 h at 37° C., 5% C02. Subsamples were taken at time 0, and after 2 h.

Caco-2 cells = conditions: cited from earlier work
[2] = human, in vivo, po, 80 mg/kg; cited from earlier work
[3] = biological target: dipeptidyl peptidase-4 (DPP-IV) (Homo sapiens, UniProt P27487); conditions: literature; cited from earlier work
Sequence of dipeptidyl peptidase-4 (DPP-IV) (P27487 whole entry, species assumed): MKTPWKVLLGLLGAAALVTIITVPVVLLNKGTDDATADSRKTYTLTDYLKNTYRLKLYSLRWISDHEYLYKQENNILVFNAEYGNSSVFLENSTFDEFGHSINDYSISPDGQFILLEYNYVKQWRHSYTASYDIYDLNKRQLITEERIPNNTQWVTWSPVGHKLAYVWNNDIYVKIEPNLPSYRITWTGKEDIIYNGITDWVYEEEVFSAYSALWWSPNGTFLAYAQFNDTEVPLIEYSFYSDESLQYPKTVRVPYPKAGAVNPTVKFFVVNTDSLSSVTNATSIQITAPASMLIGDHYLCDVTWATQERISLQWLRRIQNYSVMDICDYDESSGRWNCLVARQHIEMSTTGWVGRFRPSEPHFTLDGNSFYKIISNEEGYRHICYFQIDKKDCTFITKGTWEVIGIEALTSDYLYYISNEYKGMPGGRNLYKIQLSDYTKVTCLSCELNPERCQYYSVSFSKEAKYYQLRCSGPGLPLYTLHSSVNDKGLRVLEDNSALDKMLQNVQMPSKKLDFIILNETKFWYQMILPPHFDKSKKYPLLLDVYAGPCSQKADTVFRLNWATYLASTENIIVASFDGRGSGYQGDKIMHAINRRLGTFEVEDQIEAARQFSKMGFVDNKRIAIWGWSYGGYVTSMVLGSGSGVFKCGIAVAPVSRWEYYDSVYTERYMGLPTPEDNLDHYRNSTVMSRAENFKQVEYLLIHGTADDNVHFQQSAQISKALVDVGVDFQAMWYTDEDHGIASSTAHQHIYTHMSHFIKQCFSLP

[4] = cited from earlier work

Peptide concentration, Basolateral T0 [1] | Compound | permeability ([4]; not told) | also measured
0 ± 0 µg/mL | C[C@H](N)C(=O)N1C[C@H](O)C[C@H]1C(=O)O [Ala-Hyp] (H-Ala-[Hyp]-OH; N-terminus and C-terminus assumed) | – | –
0 ± 0 µg/mL | NCC(=O)N1CCC[C@H]1C(=O)N1C[C@H](O)C[C@H]1C(=O)O [Gly-Pro-Hyp] (H-Gly-Pro-[Hyp]-OH; N-terminus and C-terminus assumed) | – | percentage transported across the cell monolayer (Caco-2 cells): 3.59%; greatest content found in the blood [2]: ~22 µM; time of peak blood content [2]: 1 h
0 ± 0 µg/mL | NCC(=O)N1CCC[C@H]1C(=O)O [Gly-Pro] (H-Gly-Pro-OH; N-terminus and C-terminus assumed) | – | –
0 ± 0 µg/mL | O=C(O)[C@@H]1C[C@@H](O)CN1C(=O)[C@@H]1CCCN1 [Pro-Hyp] (H-Pro-[Hyp]-OH; N-terminus and C-terminus assumed) | – | –
– | Gly-Ala-[Hyp] | – | activity against DPP-IV [3]: only Gly-Pro-Hyp showed any activity
– | Gly-Pro-Ala | – | activity against DPP-IV [3]: only Gly-Pro-Hyp showed any activity
– | HLPLP | 0.018% | –
– | LPYPY | – | permeability ([4]; milk-derived peptides, literature): 0.05%
– | SDK | 21.68% | –
– | YPY | 5.56% | –
